Legend:
[1] = test system: NF-κB; experiment: Real time PCR NF-κB gene expression in MDA-MB 231 cells; conditions: treated MDA-MB 231 cells compared to untreated cells
[2] = test system: human p53 transcription factor; experiment: p53 transcription factor activity assay in MDA-MB 231 cells; type: cell-based; conditions: treated MDA-MB 231 cells relative to the untreated cells
Protocol: The relative fold activation of p53 in the treated MDA-MB 231 cells were quantified using human p53 transcription factor activity assay kit (RayBio, USA). Briefly, 100 µl of lysates of the untreated and treated MDA-MB 231 cells were added to p53 probe-coated 96 wells and incubated for 2 h (these oligonucleotides capture the active p53 in cell lysate). After washing for discarding unbound p53, primary antibody was added to bound p53-DNA complex, incubated for 1 h. Each well was washed then peroxidase-conjugated secondary antibody was added and incubated for 1 h. After washing and incubating with substrate for 30 min, the absorbance was measured at 450 nm.

[3] = test system: Ki-67; experiment: Immunohistochemical detection of Ki-67 in MDA-MB 231 cells; type: cell-based, human; conditions: MDA-MB 231, 72 h; untreated 82.425%
Protocol: (§1) After trypsinization, the untreated and treated MDA-MB231 cells were centrifuged and washed with PBS buffer and then 10% formalin in PBS was added to cell pellets. The fixed cell specimens were dehydrated in ascending grades of alcohol and immersed in xylene for one hour (three times) followed by impregnation in melted paraffin to from solid paraffin blocks. Then a rotator microtome was used to cut each block into 3-5 μm thick sections that were transferred into positively charge slides. Slides were dried at 60-70°C for 1-2 h then dewaxed by immersion in xylene 3 times and rehydrated in descending grading ethanol. After that slides were incubated in 3% H2O2 for 10 min, washed in PBS buffer twice for 3 min and put in 10 mM citrate buffer […] followed by heating for 10-20 min. After cooling and washing in PBS, slides were separately soaked overnight in primary antibodies (anti-Ki-67 and anti-p53). Slides were washed in PBS, covered with biotinylated goat anti-polyvalent secondary antibody for 10 min and then streptavidin peroxidase was added. After 10 min, substrate of secondary antibody (3,3'-diaminobenzidine) was added followed by washing in PBS and placing in hematoxylin bath for 1-4 min then washing in PBS (1 min) and water (3 min). Percentage of immunostained cells was evaluated by imaging analysis cellSens software of phase contrast microscope (Olympus, Japan).

[4] = test system: p53; experiment: Immunohistochemical detection of p53 in MDA-MB 231 cells; type: cell-based, human; conditions: MDA-MB 231, 72 h, compared to untreated cells
Protocol: as §1

[5] = test system: p21; experiment: Real time PCR p21 gene expression in MDA-MB 231 cells; conditions: treated MDA-MB 231 cells compared to untreated cells
[6] = test system: CNS cancer cells (SF-268, SF-295, SF-539, SNB-19, SNB-75, U251); experiment: NCI anticancer screening, CNS cancer subpanel; type: cell-based, human
Description: The compound has been processed according to standard method NCI-60 Human Tumor Cell Lines Screen for organic compound at development therapeutic program (DTP). Requests for access to this national resource can be submitted online at: […]

Compound	expression level of NF-κB [1]	fold activation of p53 transcription factor [2] [fold]	Ki-67 level (positive immunostaining cells) [3] [%]	increase of protein level of p53 [4] [%]	upregulation of p21 expression [5]	growth inhibition in CNS cancer cells [6]
O=C(c1nc2ccccc2[nH]1)[C@H]1[C@H](c2ccccc2)C2CSCN2[C@]12C(=O)Nc1ccccc12 (mixture of isomers) [Compound 6a, (3S,6′R)-6'-(1H-benzo [d]imidazole-2-carbonyl)-7′-phenyl-3′,6′,7′,7a′-tetrahydro-1′H-spiro [indoline-3.5′-pyrrolo [1,2-c]thiazol]-2-one]	downregulating	5.983 ± 0.142	1.18	60.2	–	–
Cc1ccc([C@@H]2C3CSCN3[C@]3(C(=O)Nc4ccccc43)[C@H]2C(=O)c2nc3ccccc3[nH]2)cc1 (mixture of isomers) [Compound 6d, (3S,6′R)-6'-(1H-Benzo [d]imidazole-2-carbonyl)-7'-(p-tolyl)-3′,6′,7′,7a′-tetrahydro-1′H-spiro [indoline-3.5′-pyrrolo [1,2-c]thiazol]-2-one]	downregulating	6.287 ± 0.254	3.03	54.7	greater than three times	–
O=C(c1nc2ccccc2[nH]1)[C@H]1[C@H](c2ccc(Cl)cc2Cl)C2CSCN2[C@]12C(=O)Nc1ccccc12 (stereo partly drawn) [Compound 6g, (3S,6′R)-6'-(1H-Benzo [d]imidazole-2-carbonyl)-7'-(2,4-dichlorophenyl)-3′,6′,7′,7a′-tetrahydro-1′H-spiro [indoline-3.5′-pyrrolo [1,2-c]thiazol]-2-one]	–	–	–	–	–	less than 80%
O=C(c1nc2ccccc2[nH]1)[C@H]1[C@H](c2ccc(Br)cc2)C2CSCN2[C@]12C(=O)Nc1ccccc12 (stereo partly drawn) [Compound 6l, (3S,6′R)-6'-(1H-Benzo [d]imidazole-2-carbonyl)-7'-(4-bromophenyl)-3′,6′,7′,7a′-tetrahydro-1′H-spiro [indoline-3.5′-pyrrolo [1,2-c]thiazol]-2-one]	–	–	–	–	–	less than 80%

Source: paper PMC11033320, “Activation of p53 signaling and regression of breast and prostate carcinoma cells by spirooxindole-benzimidazole small molecules” (Frontiers in Pharmacology, 2024)
